Laboratory results: patent publication US20220125051A1, “PRE-HARVEST DESICCATION METHOD” (SYNGENTA CROP PROTECTION AG, priority 2019, published 2022)
Where “and” joins values, the source holds several entries; their conditions need not be identical. Equal values may be shown once. Read-outs that look alike come from different tables or passages of the source.

Legend:
Format in all cases: in vivo
Brassica napus (BRSNN) = assay: Pre-harvest desiccation of crop plants; conditions: Table E, evaluated after 7 and 14 days (which not stated), 100=total damage to plant, 0=no damage
Method: (§1) Seeds of a variety of test species were sown in standard loam based soil in pots. After cultivation from between 21 and 28 days (post-emergence) under controlled conditions in a glasshouse (at 24/16° C., day/night; 14 hours light; 65% humidity) for warm climate species and (at 20/16° C. day/night; 15 hours light; 65% humidity) for cool climate species.
(§2) The plants were sprayed with an aqueous spray solution derived from dissolving the technical active ingredient formula in a small amount of acetone and a special solvent and emulsifier mixture referred to as IF50 (11.12% Emulsogen EL360 TM+44.44% N-methylpyrrolidone+44.44% Dowanol DPM glycol ether), to create a 50 g/I solution which was then diluted to required concentration using a solution of 1% Empicol ESC70 (Sodium lauryl ether sulphate)+1% ammonium sulphate in water as diluent.
(§3) The delivery of the aqueous spray solution was via a laboratory track sprayer which delivered the aqueous spray composition at a rate of 200 litres per hectare, using a flat fan nozzle (Teejet 11002VS) and an application volume of 200 litre/ha (at 2 bar).
(§4) The test plants were then grown in a glasshouse under controlled conditions (at 24/16° C., day/night; 14 hours light; 65% humidity) for warm climate species and (at 20/16° C. day/night; 15 hours light; 65% humidity) for cool climate species and watered twice daily. After 7 and 14 days the test was evaluated (100=total damage to plant; 0=no damage to plant).
(§5) A value of n/t indicates not tested.
(§6) Glycine Max (GLXMA), Solanum turberosum (SOLTU), Gossypium hirsutum (GOSHI), Brassica napus (BRSNN), Helianthus annus (HELAN)

Glycine Max (GLXMA) = assay: Pre-harvest desiccation of crop plants; conditions: Table E, evaluated after 7 and 14 days (which not stated), 100=total damage to plant, 0=no damage
Method: as §1, §2, §3, §4, §5, §6

[1] = test system: Gossypium hirsutum (GOSHI); assay: Pre-harvest desiccation of crop plants; conditions: Table E, evaluated after 7 and 14 days (which not stated), 100=total damage to plant, 0=no damage
Method: as §1, §2, §3, §4, §5, §6

[2] = test system: Solanum turberosum (SOLTU); assay: Pre-harvest desiccation of crop plants; conditions: Table E, evaluated after 7 and 14 days (which not stated), 100=total damage to plant, 0=no damage
Method: as §1, §2, §3, §4, §5, §6

[3] = test system: Amaranthus palmeri (AMAPA); assay: Post-emergence efficacy, Method A; conditions: evaluated after 13 days; for pest or weed control at 500 g/ha: Amaranthus palmeri, post-emergence, 312 h
Procedure, shortened: (§7)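 Plants raised 14 days from seed in standard soil in a glasshouse (24/16 °C day/night, 14 h light, 65% humidity) were sprayed with compound dissolved in acetone plus IF50 solvent/emulsifier (50 g/l solution), diluted with 0.25% or 1% Empicol ESC70 + 1% ammonium sulphate. Damage was scored visually after 13 days (0 = none, 100 = total).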

[4] = test system: Chenopodium album (CHEAL); assay: Post-emergence efficacy, Method A; conditions: evaluated after 13 days; for pest or weed control at 500 g/ha: Chenopodium album, post-emergence, 312 h
Procedure, shortened: as §7

[5] = test system: Digitaria sanguinalis (DIGSA); assay: Post-emergence efficacy, Method A; conditions: evaluated after 13 days; for pest or weed control at 500 g/ha: Digitaria sanguinalis, post-emergence, 312 h
Procedure, shortened: as §7

[6] = test system: Echinochloa crus-galli (ECHCG); assay: Post-emergence efficacy, Method A; conditions: evaluated after 13 days; for pest or weed control at 500 g/ha: Echinochloa crus-galli, post-emergence, 312 h
Procedure, shortened: as §7

Eleusine indica (ELEIN) = assay: Post-emergence efficacy, Method A; conditions: evaluated after 13 days; for pest or weed control at 500 g/ha: Eleusine indica, post-emergence, 312 h
Procedure, shortened: as §7

[7] = test system: Euphorbia heterophylla (EPHHL); assay: Post-emergence efficacy, Method A; conditions: evaluated after 13 days; for pest or weed control at 500 g/ha: Euphorbia heterophylla, post-emergence, 312 h
Procedure, shortened: as §7

[8] = test system: Ipomoea hederacea (IPOHE); assay: Post-emergence efficacy, Method A; conditions: evaluated after 13 days; for pest or weed control at 500 g/ha: Ipomoea hederacea, post-emergence, 312 h
Procedure, shortened: as §7

Lolium perenne (LOLPE) = assay: Post-emergence efficacy, Method A; conditions: evaluated after 13 days; for pest or weed control at 500 g/ha: Lolium perenne, post-emergence, 312 h
Procedure, shortened: as §7

Setaria faberi (SETFA) = assay: Post-emergence efficacy, Method A; conditions: evaluated after 13 days; for pest or weed control at 500 g/ha: Setaria faberi, post-emergence, 312 h
Procedure, shortened: as §7

[9] = Application rate 500 g/Ha, 100=total damage to plant, 0=no damage to plant
[10] = Application rate 500 g/Ha, 100=total damage to plant, 0=no damage to plant, read-out: Control of weed species after post-emergence application, AMAPA
[11] = Application rate 500 g/Ha, 100=total damage to plant, 0=no damage to plant, read-out: Control of weed species after post-emergence application, CHEAL
[12] = Application rate 500 g/Ha, 100=total damage to plant, 0=no damage to plant, read-out: Control of weed species after post-emergence application, DIGSA
[13] = Application rate 500 g/Ha, 100=total damage to plant, 0=no damage to plant, read-out: Control of weed species after post-emergence application, ECHCG
[14] = Application rate 500 g/Ha, 100=total damage to plant, 0=no damage to plant, read-out: Control of weed species after post-emergence application, ELEIN
[15] = Application rate 500 g/Ha, 100=total damage to plant, 0=no damage to plant, read-out: Control of weed species after post-emergence application, EPHHL
[16] = Application rate 500 g/Ha, 100=total damage to plant, 0=no damage to plant, read-out: Control of weed species after post-emergence application, IPOHE
[17] = Application rate 500 g/Ha, 100=total damage to plant, 0=no damage to plant, read-out: Control of weed species after post-emergence application, LOLPE
[18] = Application rate 500 g/Ha, 100=total damage to plant, 0=no damage to plant, read-out: Control of weed species after post-emergence application, SETFA
[19] = Application Rate 500 g/Ha, Method A, read-out: Control of weed species after post-emergence application, AMAPA (100=total damage to plant; 0=no damage to plant)
[20] = Application Rate 500 g/Ha, Method A, read-out: Control of weed species after post-emergence application, CHEAL (100=total damage to plant; 0=no damage to plant)
[21] = Application Rate 500 g/Ha, Method A, read-out: Control of weed species after post-emergence application, DIGSA (100=total damage to plant; 0=no damage to plant)
[22] = Application Rate 500 g/Ha, Method A, read-out: Control of weed species after post-emergence application, ECHCG (100=total damage to plant; 0=no damage to plant)
[23] = Application Rate 500 g/Ha, Method A, read-out: Control of weed species after post-emergence application, ELEIN (100=total damage to plant; 0=no damage to plant)
[24] = Application Rate 500 g/Ha, Method A, read-out: Control of weed species after post-emergence application, EPHHL (100=total damage to plant; 0=no damage to plant)
[25] = Application Rate 500 g/Ha, Method A, read-out: Control of weed species after post-emergence application, IPOHE (100=total damage to plant; 0=no damage to plant)
[26] = Application Rate 500 g/Ha, Method A, read-out: Control of weed species after post-emergence application, LOLPE (100=total damage to plant; 0=no damage to plant)
[27] = Application Rate 500 g/Ha, Method A, read-out: Control of weed species after post-emergence application, SETFA (100=total damage to plant; 0=no damage to plant)

Structure (SMILES) | Post-emergence dessication efficacy, BRSNN (Brassica napus (BRSNN); 150 g/Ha) | Post-emergence dessication efficacy, BRSNN (Brassica napus (BRSNN); 300 g/Ha) | Post-emergence dessication efficacy, BRSNN (Brassica napus (BRSNN); 600 g/Ha) | Post-emergence dessication efficacy, GLXMA (Glycine Max (GLXMA); 150 g/Ha) | Post-emergence dessication efficacy, GLXMA (Glycine Max (GLXMA); 300 g/Ha) | Post-emergence dessication efficacy, GLXMA (Glycine Max (GLXMA); 600 g/Ha) | Post-emergence dessication efficacy, GOSHI ([1]; 600 g/Ha) | pest or weed control at 500 g/ha [3, 19] [%] | pest or weed control at 500 g/ha [4, 20] [%] | pest or weed control at 500 g/ha [5, 21] [%] | pest or weed control at 500 g/ha [6, 22] [%] | pest or weed control at 500 g/ha (Eleusine indica (ELEIN); [23]) [%] | pest or weed control at 500 g/ha [7, 24] [%] | pest or weed control at 500 g/ha [8, 25] [%] | pest or weed control at 500 g/ha (Lolium perenne (LOLPE); [26]) [%] | pest or weed control at 500 g/ha (Setaria faberi (SETFA); [27]) [%] | other results
O=S(=O)([O-])CC[n+]1ccc(-c2ncccn2)cn1 [Compound A1, 2-(4-pyrimidin-2-ylpyridazin-1-ium-1-yl)ethanesulfonate] | 33 | 55 | 70 | 68 | 94 | 98 | 96 |  |  |  |  |  |  |  |  |  | Post-emergence dessication efficacy, GOSHI ([1]; 150 g/Ha): 99; Post-emergence dessication efficacy, GOSHI ([1]; 300 g/Ha): 98; Post-emergence dessication efficacy, SOLTU ([2]; 150 g/Ha): 38; Post-emergence dessication efficacy, SOLTU ([2]; 300 g/Ha): 90; Post-emergence dessication efficacy, SOLTU ([2]; 600 g/Ha): 60
O=S(=O)([O-])CC[n+]1ccc(-c2cccnn2)cn1 [Compound A5, 2-(4-pyridazin-3-ylpyridazin-1-ium-1-yl)ethanesulfonate] | 50 | 72 | 82 | 83 | 93 | 100 | 100 |  |  |  |  |  |  |  |  |  | Post-emergence dessication efficacy, GOSHI ([1]; 150 g/Ha): 82; Post-emergence dessication efficacy, GOSHI ([1]; 300 g/Ha): 98; Post-emergence dessication efficacy, SOLTU ([2]; 150 g/Ha): 27; Post-emergence dessication efficacy, SOLTU ([2]; 300 g/Ha): 53; Post-emergence dessication efficacy, SOLTU ([2]; 600 g/Ha): 60
Cl.O=C(O)CC[n+]1ccc(-c2cccnn2)cn1.[Cl-] [Compound A234, 3-(4-pyridazin-1-ium-3-ylpyridazin-1-ium-1-yl)propanoic acid dichloride] | 99 | 100 | 100 | 97 and 52 | 97 and 67 | 97 and 63 | 100 and 50 |  |  |  |  |  |  |  |  |  | Post-emergence dessication efficacy, BRSNN (Brassica napus (BRSNN); 75 g/Ha): 77; Post-emergence dessication efficacy, GLXMA (Glycine Max (GLXMA); 75 g/Ha): 25; Post-emergence dessication efficacy, GOSHI ([1]; 75 g/Ha): 33; Post-emergence dessication efficacy, SOLTU ([2]; 75 g/Ha): 7
N#Cc1cnc(-c2cc[n+](CCS(=O)(=O)O)nc2)nc1 [Compound A25] |  |  |  |  |  |  |  |  |  |  |  |  |  |  |  |  | Control of weed species after post-emergence application, AMAPA [3, 9]: 100; Control of weed species after post-emergence application, CHEAL [4, 9]: 60; Control of weed species after post-emergence application, DIGSA [5, 9]: 50; Control of weed species after post-emergence application, ECHCG [6, 9]: 70; Control of weed species after post-emergence application, ELEIN (Eleusine indica (ELEIN); [9]): 50; Control of weed species after post-emergence application, EPHHL [7, 9]: 40; Control of weed species after post-emergence application, IPOHE [8, 9]: 50; Control of weed species after post-emergence application, LOLPE (Lolium perenne (LOLPE); [9]): 40; Control of weed species after post-emergence application, SETFA (Setaria faberi (SETFA); [9]): 60
O=S(=O)([O-])CC[n+]1ccc(-c2cnc(C(F)(F)F)cn2)cn1 [Compound A112] |  |  |  |  |  |  |  |  |  |  |  |  |  |  |  |  | pest or weed control at 500 g/ha [3, 10]: 100%; pest or weed control at 500 g/ha [4, 11]: 100%; pest or weed control at 500 g/ha [5, 12]: 40%; pest or weed control at 500 g/ha [6, 13]: 40%; pest or weed control at 500 g/ha (Eleusine indica (ELEIN); [14]): 50%; pest or weed control at 500 g/ha [7, 15]: 80%; pest or weed control at 500 g/ha [8, 16]: 40%; pest or weed control at 500 g/ha (Lolium perenne (LOLPE); [17]): 40%; pest or weed control at 500 g/ha (Setaria faberi (SETFA); [18]): 70%
O=c1[nH]c(-c2cc[n+](CCCS(=O)(=O)[O-])nc2)ncc1Cl [Compound A173] |  |  |  |  |  |  |  | 30 | 50 | 20 | 30 | 10 | 40 | 20 | 10 | 30 | 
O=C(O)CC[n+]1ccc(-c2ncc(Cl)c(=O)[nH]2)cn1 [Compound A161, 3-[4-(5-chloro-6-oxo-1H-pyrimidin-2-yl)pyridazin-1-ium-1-yl]propanoic acid 2,2,2-trifluoroacetate] |  |  |  |  |  |  |  | 30 | 70 | 20 | 20 | 20 | 50 | 20 | 10 | 10 | 
O=C([O-])CC[n+]1ccc(-c2ccc(F)cn2)cn1 [Compound A71] |  |  |  |  |  |  |  |  |  |  |  |  |  |  |  |  | pest or weed control at 500 g/ha [3, 10]: 100%; pest or weed control at 500 g/ha [4, 11]: 60%; pest or weed control at 500 g/ha [5, 12]: 30%; pest or weed control at 500 g/ha [6, 13]: 30%; pest or weed control at 500 g/ha (Eleusine indica (ELEIN); [14]): 30%; pest or weed control at 500 g/ha [7, 15]: 40%; pest or weed control at 500 g/ha [8, 16]: 40%; pest or weed control at 500 g/ha (Lolium perenne (LOLPE); [17]): 10%; pest or weed control at 500 g/ha (Setaria faberi (SETFA); [18]): 30%
O=C(O)CC[n+]1ccc(-c2ccnc(C(F)(F)F)c2)cn1 [Compound A166] |  |  |  |  |  |  |  | 30 | 50 | 70 | 50 | 60 | 60 | 60 | 70 | 40 | 
